Experimental data as given in ChEMBL document CHEMBL1221287 (Bioorg Med Chem Lett, 2010).
pKi: −log10 of the molar value.

Experiments:
Carbonic anhydrase 13 = Carbonic anhydrase 13 (Homo sapiens, UniProt Q8N1Q1)
Description: Inhibition of human carbonic anhydrase 13 after 15 mins by stopped flow CO2 hydration method

Carbonic anhydrase 1 = Carbonic anhydrase 1 (Homo sapiens, UniProt P00915)
Description: Inhibition of human carbonic anhydrase 1 after 15 mins by stopped flow CO2 hydration method

Carbonic anhydrase 2 = Carbonic anhydrase 2 (Homo sapiens, UniProt P00918)
Description: Inhibition of human carbonic anhydrase 2 after 15 mins by stopped flow CO2 hydration method

Carbonic anhydrase 3 = Carbonic anhydrase 3 (Homo sapiens, UniProt P07451)
Description: Inhibition of human carbonic anhydrase 3 after 15 mins by stopped flow CO2 hydration method

Carbonic anhydrase 4 = Carbonic anhydrase 4 (Homo sapiens, UniProt P22748)
Description: Inhibition of human carbonic anhydrase 4 after 15 mins by stopped flow CO2 hydration method

[1] = target: Carbonic anhydrase 5A, mitochondrial (Homo sapiens, UniProt P35218)
Description: Inhibition of human carbonic anhydrase 5a after 15 mins by stopped flow CO2 hydration method

[2] = target: Carbonic anhydrase 5B, mitochondrial (Homo sapiens, UniProt Q9Y2D0)
Description: Inhibition of human carbonic anhydrase 5b after 15 mins by stopped flow CO2 hydration method

Carbonic anhydrase 6 = Carbonic anhydrase 6 (Homo sapiens, UniProt P23280)
Description: Inhibition of human carbonic anhydrase 6 after 15 mins by stopped flow CO2 hydration method

Carbonic anhydrase 7 = Carbonic anhydrase 7 (Homo sapiens, UniProt P43166)
Description: Inhibition of human carbonic anhydrase 7 after 15 mins by stopped flow CO2 hydration method

Carbonic anhydrase 12 = Carbonic anhydrase 12 (Homo sapiens, UniProt O43570)
Description: Inhibition of human carbonic anhydrase 12 after 15 mins by stopped flow CO2 hydration method

Carbonic anhydrase 14 = Carbonic anhydrase 14 (Homo sapiens, UniProt Q9ULX7)
Description: Inhibition of human carbonic anhydrase 14 after 15 mins by stopped flow CO2 hydration method

Carbonic anhydrase 15 = target: T1, Carbonic anhydrase 15 (Mus musculus, UniProt Q99N23)
T1 sequence (Q99N23 whole entry): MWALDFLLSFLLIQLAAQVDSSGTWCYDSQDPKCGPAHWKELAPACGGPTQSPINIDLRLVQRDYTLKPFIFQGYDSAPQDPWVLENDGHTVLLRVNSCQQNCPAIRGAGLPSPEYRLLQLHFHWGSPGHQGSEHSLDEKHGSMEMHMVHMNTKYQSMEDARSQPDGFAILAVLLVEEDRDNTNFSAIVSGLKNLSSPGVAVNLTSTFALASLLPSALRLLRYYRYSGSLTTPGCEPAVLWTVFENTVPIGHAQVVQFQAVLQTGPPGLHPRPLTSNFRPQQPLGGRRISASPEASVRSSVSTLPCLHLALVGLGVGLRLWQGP
Description: Inhibition of mouse carbonic anhydrase 15 after 15 mins by stopped flow CO2 hydration method

Carbonic anhydrase 9 = Carbonic anhydrase 9 (Homo sapiens, UniProt Q16790)
Description: Inhibition of human carbonic anhydrase 9 after 15 mins by stopped flow CO2 hydration method

Carbonic anhydrase 3, sequence (P07451 whole entry): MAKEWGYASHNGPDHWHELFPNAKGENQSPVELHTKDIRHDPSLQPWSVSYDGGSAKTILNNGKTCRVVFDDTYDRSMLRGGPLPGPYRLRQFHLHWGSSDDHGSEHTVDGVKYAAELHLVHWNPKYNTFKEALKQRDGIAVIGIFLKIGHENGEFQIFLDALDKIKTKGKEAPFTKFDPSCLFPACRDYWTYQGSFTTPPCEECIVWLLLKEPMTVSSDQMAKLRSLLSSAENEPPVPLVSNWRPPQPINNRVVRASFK
Carbonic anhydrase 12, sequence (O43570 whole entry): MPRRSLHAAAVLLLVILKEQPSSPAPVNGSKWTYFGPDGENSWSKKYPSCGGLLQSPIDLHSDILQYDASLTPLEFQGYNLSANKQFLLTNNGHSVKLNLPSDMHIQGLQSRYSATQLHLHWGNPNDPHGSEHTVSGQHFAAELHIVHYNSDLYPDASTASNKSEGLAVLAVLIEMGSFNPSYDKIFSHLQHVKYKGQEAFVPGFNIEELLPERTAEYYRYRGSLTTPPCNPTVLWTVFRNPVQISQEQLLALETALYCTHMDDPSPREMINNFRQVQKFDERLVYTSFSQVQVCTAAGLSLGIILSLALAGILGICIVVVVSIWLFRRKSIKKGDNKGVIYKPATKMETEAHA
Carbonic anhydrase 5A, mitochondrial, sequence (P35218 whole entry): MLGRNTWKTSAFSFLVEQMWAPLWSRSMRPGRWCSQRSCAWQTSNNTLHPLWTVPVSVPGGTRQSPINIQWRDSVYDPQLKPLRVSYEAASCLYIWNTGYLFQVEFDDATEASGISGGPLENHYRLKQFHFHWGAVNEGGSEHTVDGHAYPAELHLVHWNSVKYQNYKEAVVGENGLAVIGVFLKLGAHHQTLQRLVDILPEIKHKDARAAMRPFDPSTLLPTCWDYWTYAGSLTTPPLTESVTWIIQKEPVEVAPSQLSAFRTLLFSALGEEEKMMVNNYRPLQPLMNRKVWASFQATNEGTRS
Carbonic anhydrase 13, sequence (Q8N1Q1 whole entry): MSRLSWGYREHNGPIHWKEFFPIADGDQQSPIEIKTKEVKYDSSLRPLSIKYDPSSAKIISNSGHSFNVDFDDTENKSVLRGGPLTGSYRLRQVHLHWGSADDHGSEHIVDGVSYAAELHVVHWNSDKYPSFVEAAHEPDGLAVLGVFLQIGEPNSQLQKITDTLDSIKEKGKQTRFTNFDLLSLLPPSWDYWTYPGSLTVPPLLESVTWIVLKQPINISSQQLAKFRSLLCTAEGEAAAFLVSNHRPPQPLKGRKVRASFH
Carbonic anhydrase 4, sequence (P22748 whole entry): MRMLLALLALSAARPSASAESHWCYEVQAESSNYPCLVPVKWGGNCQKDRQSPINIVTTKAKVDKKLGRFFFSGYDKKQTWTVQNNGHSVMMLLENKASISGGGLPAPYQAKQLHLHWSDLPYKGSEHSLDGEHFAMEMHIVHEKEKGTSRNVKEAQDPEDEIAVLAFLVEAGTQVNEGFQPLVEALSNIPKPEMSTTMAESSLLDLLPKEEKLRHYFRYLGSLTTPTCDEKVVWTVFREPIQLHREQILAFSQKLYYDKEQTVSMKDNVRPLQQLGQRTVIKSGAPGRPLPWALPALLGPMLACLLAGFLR
Carbonic anhydrase 7, sequence (P43166 whole entry): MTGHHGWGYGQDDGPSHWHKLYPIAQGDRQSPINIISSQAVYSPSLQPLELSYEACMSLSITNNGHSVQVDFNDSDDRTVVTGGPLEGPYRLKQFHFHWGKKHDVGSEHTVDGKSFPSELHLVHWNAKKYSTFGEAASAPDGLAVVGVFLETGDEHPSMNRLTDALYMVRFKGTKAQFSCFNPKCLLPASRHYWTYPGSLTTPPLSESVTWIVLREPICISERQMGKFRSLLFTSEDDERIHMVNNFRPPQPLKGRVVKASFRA
Carbonic anhydrase 1, sequence (P00915 whole entry): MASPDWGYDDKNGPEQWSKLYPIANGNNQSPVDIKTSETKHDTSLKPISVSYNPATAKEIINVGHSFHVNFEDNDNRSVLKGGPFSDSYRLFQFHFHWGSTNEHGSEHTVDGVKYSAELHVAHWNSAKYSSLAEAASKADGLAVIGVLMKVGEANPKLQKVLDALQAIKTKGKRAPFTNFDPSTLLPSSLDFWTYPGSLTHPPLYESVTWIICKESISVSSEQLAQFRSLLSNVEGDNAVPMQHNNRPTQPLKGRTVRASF
Carbonic anhydrase 6, sequence (P23280 whole entry): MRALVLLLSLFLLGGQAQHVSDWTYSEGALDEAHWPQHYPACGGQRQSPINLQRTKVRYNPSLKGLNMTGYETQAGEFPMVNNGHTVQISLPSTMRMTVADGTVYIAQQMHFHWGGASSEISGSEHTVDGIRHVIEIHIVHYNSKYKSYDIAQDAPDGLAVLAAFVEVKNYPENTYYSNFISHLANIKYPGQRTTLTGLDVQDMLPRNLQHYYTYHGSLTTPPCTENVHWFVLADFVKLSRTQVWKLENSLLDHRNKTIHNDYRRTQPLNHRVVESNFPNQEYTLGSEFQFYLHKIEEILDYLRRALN
Carbonic anhydrase 14, sequence (Q9ULX7 whole entry): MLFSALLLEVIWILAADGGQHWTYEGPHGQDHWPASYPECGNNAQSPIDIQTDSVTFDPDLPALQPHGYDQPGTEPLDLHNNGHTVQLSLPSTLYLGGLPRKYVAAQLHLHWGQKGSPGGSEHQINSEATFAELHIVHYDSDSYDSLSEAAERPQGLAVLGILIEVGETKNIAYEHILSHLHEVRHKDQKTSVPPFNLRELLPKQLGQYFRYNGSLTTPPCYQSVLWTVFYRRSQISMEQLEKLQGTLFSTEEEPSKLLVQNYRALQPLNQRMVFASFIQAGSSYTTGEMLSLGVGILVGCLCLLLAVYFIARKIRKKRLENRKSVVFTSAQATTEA
Carbonic anhydrase 5B, mitochondrial, sequence (Q9Y2D0 whole entry): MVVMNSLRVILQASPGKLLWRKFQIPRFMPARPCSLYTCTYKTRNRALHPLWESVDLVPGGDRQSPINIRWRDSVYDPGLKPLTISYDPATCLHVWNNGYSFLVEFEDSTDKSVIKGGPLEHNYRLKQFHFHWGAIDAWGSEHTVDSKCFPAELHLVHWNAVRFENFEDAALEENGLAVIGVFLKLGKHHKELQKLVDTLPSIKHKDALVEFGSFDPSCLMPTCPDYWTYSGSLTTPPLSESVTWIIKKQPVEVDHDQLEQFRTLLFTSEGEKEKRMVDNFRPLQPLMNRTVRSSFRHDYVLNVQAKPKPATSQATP

SMILES	pKi (Carbonic anhydrase 3)	pKi (Carbonic anhydrase 4)	pKi [1]	pKi [2]	pKi (Carbonic anhydrase 6)	pKi (Carbonic anhydrase 7)	pKi (Carbonic anhydrase 12)	pKi (Carbonic anhydrase 14)	pKi (Carbonic anhydrase 15)	pKi (Carbonic anhydrase 9)	pKi (Carbonic anhydrase 13)	pKi (Carbonic anhydrase 1)	pKi (Carbonic anhydrase 2)
Oc1ccccc1 [PHENOL]											3.16		
O=C(O)/C=C/c1ccccc1O [O-COUMARIC ACID]	< 3.00	4.21	< 3.00	3.24	< 3.00	< 3.00	< 3.00	< 3.00	< 3.00	< 3.00	< 3.00	5.51	5.04
CC(CCc1ccc(O)cc1)NCCc1ccc(O)c(O)c1 (centres undefined) [DOBUTAMINE]	5.13	5.05	6.14	6.05	5.02	5.37	5.36	4.92	6.41	5.01	5.02	5.72	6.32

Second part, led by results:

pKi (Carbonic anhydrase 3)	pKi (Carbonic anhydrase 4)	pKi [1]	pKi [2]	pKi (Carbonic anhydrase 6)	pKi (Carbonic anhydrase 7)	pKi (Carbonic anhydrase 12)	pKi (Carbonic anhydrase 14)	pKi (Carbonic anhydrase 15)	pKi (Carbonic anhydrase 9)	SMILES	pKi (Carbonic anhydrase 13)	pKi (Carbonic anhydrase 1)	pKi (Carbonic anhydrase 2)
5.45	5.31	5.38	5.40	5.31	6.35	5.33	4.94	5.11	5.30	Oc1cc(O)c2c(c1)O[C@H](c1ccc(O)c(O)c1)[C@@H](O)C2 [CATECHIN]	4.98	5.62	5.74
4.95	5.30	4.99	5.02	5.00	5.03	5.46	4.93	5.29	5.39	COc1cc(/C=C/C(=O)CC(=O)/C=C/c2ccc(O)c(OC)c2)ccc1O [CURCUMIN]	5.16		
5.04	5.35	5.32	5.33	5.09	5.36	6.02	6.08	5.03	6.09	Oc1ccc(/C=C/c2cc(O)cc(O)c2)cc1 [RESVERATROL]	5.39	5.66	5.56
